≈ marks a conversion by molar mass, not a printed value. Like-named read-outs stand apart in the source and are kept apart here.
Columns and labels:
Assay in all cases: Broth microdilution MIC, ATCC strains
Format in all cases: cell-based
S. warneri ATCC 27836 = details: Staphylococcus warneri, ATCC27836; S. warneri ATCC 27836; read-out: MIC (growth inhibition, microdilution method)
From the text: (§1) All clinical isolates tested were from The North American Urinary Tract Infection Collaborative Alliance (NAUTICA) which is a UTI surveillance study involving 40 medical centres (30 from the US and 10 from Canada). Each centre submitted up to 50 consecutive outpatient midstream urine isolates. All isolates were deemed significant urinary tract pathogens by individual laboratory criteria and identified to the species level by each laboratory's existing protocol. Isolates were transported to the coordinating laboratory (Health Sciences Centre, Winnipeg, Canada) on charcoal swabs. Only one isolate per patient was accepted. Upon receipt, isolates were cultured by the coordinating laboratory, stocked in skim milk, and stored at −80° C. awaiting reference antibiotic susceptibility testing. Elementary demographic information was also compiled for each isolate. Isolates were selected randomly from the above pool to represent 18 different species of Enterobacteriaceae and non-Enterobacteriaceae. An average of 5 strains of each species were tested for a total of 93 organisms. In addition, 23 reference (ATCC) [both gram negative and gram positive] strains were tested.
(§2) Susceptibilities to the compounds were determined using the National Committee for Clinical Laboratory Standards (NCCLS) M7-A6 broth microdilution method. […] DMSO controls were incorporated into the panel to mimic the quantity of DMSO used in dissolving some of the compounds at the higher concentrations. Each final panel well volume was 100 μl with a bacterial inoculum of 5×10^5 colony forming units (CFU)/ml. Panels were read following 16 to 20 hours of incubation at 35° C. in ambient air. The minimum inhibitory concentration (MIC) was defined as the lowest concentration of antimicrobial inhibiting visible growth. Quality control (QC) was performed using four ATCC QC organisms that were run with every batch set up to insure reproducibility.

S. marcescens ATCC 8100 = details: Serratia marcescens
From the text: as §1, §2

P. mirabilis ATCC 29245 = details: Proteus mirabilis
From the text: as §1, §2

S. simulans ATCC 27848 = details: Staphylococcus simulans, ATCC27848, read-out: MIC (growth inhibition, microdilution method)
From the text: as §1, §2

E. faecium ATCC 35667 = details: Enterococcus faecium, ATCC35667, read-out: MIC (growth inhibition, microdilution method)
From the text: as §1, §2

[1] = tested on: Ps. aeruginosa ATCC 27853; details: Pseudomonas aeruginosa
From the text: as §1, §2

[2] = tested on: S. epidermidis ATCC 14990; details: Staphylococcus epidermidis
From the text: as §1, §2

E. coli ATCC 25922 = details: Escherichia coli
From the text: as §1, §2

A. anitratus ATCC 19606 = details: Acinetobacter calcoaceticus, ATCC19606; A. anitratus ATCC 19606; read-out: MIC (growth inhibition, microdilution method)
From the text: as §1, §2

E. aerogenes ATCC 13048 = details: Klebsiella aerogenes
From the text: as §1, §2

K. oxytoca ATCC 49131 = details: Klebsiella oxytoca
From the text: as §1, §2

P. vulgaris ATCC 49132 = details: Proteus vulgaris
From the text: as §1, §2

[3] = tested on: S. saprophyticus ATCC 15305; details: Staphylococcus saprophyticus
From the text: as §1, §2

K. pneumoniae ATCC 13883 = details: Klebsiella pneumoniae
From the text: as §1, §2

S. aureus ATCC 29213 = details: for MIC: Staphylococcus aureus
From the text: as §1, §2

[4] = tested on: S. liquefaciens ATCC 27592; details: read-out: MIC (growth inhibition, microdilution method)
From the text: as §1, §2

Pr. stuartii ATCC 33672 = details: Providencia stuartii, ATCC33672; Pr. stuartii ATCC 33672; read-out: MIC (growth inhibition, microdilution method)
From the text: as §1, §2

E. cloacae ATCC 23355 = details: Enterobacter cloacae
From the text: as §1, §2

MRSA ATCC 33591 = details: Staphylococcus aureus, read-out: MIC (growth inhibition, microdilution method)
From the text: as §1, §2

[5] = tested on: S. maltophilia ATCC 13637; details: Stenotrophomonas maltophilia, ATCC13637; S. maltophilia ATCC 13637; read-out: MIC (growth inhibition, microdilution method)
From the text: as §1, §2

B. cepacia ATCC 25416 = details: Burkholderia cepacia, ATCC25416; B. cepacia ATCC 25416; read-out: MIC (growth inhibition, microdilution method)
From the text: as §1, §2

E. faecalis ATCC 29212 = details: Enterococcus faecalis, read-out: MIC (growth inhibition, microdilution method)
From the text: as §1, §2

[6] = ATCC8100, S. marcescens ATCC 8100, read-out: MIC (growth inhibition, microdilution method)
[7] = ATCC29245, P. mirabilis ATCC 29245, read-out: MIC (growth inhibition, microdilution method)
[8] = ATCC27853, Ps. aeruginosa ATCC 27853, read-out: MIC (growth inhibition, microdilution method)
[9] = ATCC14990, S. epidermidis ATCC 14990, read-out: MIC (growth inhibition, microdilution method)
[10] = ATCC25922, E. coli ATCC 25922, read-out: MIC (growth inhibition, microdilution method)
[11] = ATCC13048, E. aerogenes ATCC 13048, read-out: MIC (growth inhibition, microdilution method)
[12] = ATCC49131, K. oxytoca ATCC 49131, read-out: MIC (growth inhibition, microdilution method)
[13] = ATCC49132, P. vulgaris ATCC 49132, read-out: MIC (growth inhibition, microdilution method)
[14] = ATCC15305, S. saprophyticus ATCC 15305, read-out: MIC (growth inhibition, microdilution method)
[15] = ATCC13883, K. pneumoniae ATCC 13883, read-out: MIC (growth inhibition, microdilution method)
[16] = ATCC29213, S. aureus ATCC 29213, read-out: MIC (growth inhibition, microdilution method)
[17] = ATCC23355, E. cloacae ATCC 23355, read-out: MIC (growth inhibition, microdilution method)
[18] = ATCC29212, E. faecalis ATCC 29212
[19] = ATCC29212, E. faecalis, ATCC number not given

| Compound | MIC (S. warneri ATCC 27836) [µg/mL] | MIC (S. marcescens ATCC 8100; [6]) [µg/mL] | MIC (P. mirabilis ATCC 29245; [7]) [µg/mL] | MIC (S. simulans ATCC 27848) [µg/mL] | MIC (E. faecium ATCC 35667) [µg/mL] | MIC [1, 8] [µg/mL] | MIC [2, 9] [µg/mL] | MIC (E. coli ATCC 25922; [10]) [µg/mL] | MIC (A. anitratus ATCC 19606) [µg/mL] | MIC (E. aerogenes ATCC 13048; [11]) [µg/mL] | MIC (K. oxytoca ATCC 49131; [12]) [µg/mL] | MIC (P. vulgaris ATCC 49132; [13]) [µg/mL] | MIC [3, 14] [µg/mL] | MIC (K. pneumoniae ATCC 13883; [15]) [µg/mL] | MIC (S. aureus ATCC 29213; [16]) [µg/mL] | MIC (Pr. stuartii ATCC 33672) [µg/mL] | MIC [5] [µg/mL] | MIC (B. cepacia ATCC 25416) [µg/mL] | MIC (E. faecalis ATCC 29212; [18]) [µg/mL] | MIC (E. faecalis ATCC 29212; [19]) [µg/mL] | also measured |
| --- | --- | --- | --- | --- | --- | --- | --- | --- | --- | --- | --- | --- | --- | --- | --- | --- | --- | --- | --- | --- | --- |
| COC(=O)c1sc(-c2ccc(F)cc2)cc1-c1nnnn1C [DNM-145, 5-(4-Fluoro-phenyl)-3-(1-methyl-1H-tetrazol-5-yl)-thiophene-2-carboxylic acid methyl ester] | > 4 | > 4 | > 4 | > 4 | > 4 | > 4 | > 4 | > 4 | > 4 | > 4 | > 4 | > 4 | > 4 | > 4 | > 4 | > 4 | > 4 | > 4 | > 4 | > 4 | MIC ([4]; S. liquefaciens ATCC 27592): > 4 µg/mL; MIC (E. cloacae ATCC 23355; [17]): > 4 µg/mL; MIC (MRSA ATCC 33591; MRSA ATCC 33591): > 4 µg/mL |
| O=C(O)c1cc(-c2nnn[nH]2)c(C(=O)O)s1 [DNM-111, 3-(1H-tetrazol-5-yl)thiophene-2,5-dicarboxylic acid] | 256 (≈ 1070 µM) |  |  | 256 (≈ 1070 µM) | 8 (≈ 33.3 µM) | 64 (≈ 266 µM) |  | 64 (≈ 266 µM) | 64 (≈ 266 µM) |  |  |  |  |  |  | 256 (≈ 1070 µM) | 64 (≈ 266 µM) | 64 (≈ 266 µM) | 8 (≈ 33.3 µM) | 8 (≈ 33.3 µM) | MIC (S. marcescens ATCC 8100; ATCC8100, read-out: MIC (growth inhibition, microdilution method)): 128 µg/mL (≈ 533 µM); MIC (P. mirabilis ATCC 29245; ATCC29245, read-out: MIC (growth inhibition, microdilution method)): 128 µg/mL (≈ 533 µM); MIC ([1]; ATCC27853, read-out: MIC (growth inhibition, microdilution method), Ps. aeruginosa ATCC 27853): 128 µg/mL (≈ 533 µM); MIC ([2]; ATCC14990, read-out: MIC (growth inhibition, microdilution method)): 128 µg/mL (≈ 533 µM); MIC (E. coli ATCC 25922; ATCC25922, read-out: MIC (growth inhibition, microdilution method)): 128 µg/mL (≈ 533 µM); MIC (E. aerogenes ATCC 13048; ATCC13048, read-out: MIC (growth inhibition, microdilution method)): 128 µg/mL (≈ 533 µM); MIC (K. oxytoca ATCC 49131; ATCC49131, read-out: MIC (growth inhibition, microdilution method)): 128 µg/mL (≈ 533 µM); MIC (P. vulgaris ATCC 49132; ATCC49132, read-out: MIC (growth inhibition, microdilution method)): 128 µg/mL (≈ 533 µM); MIC ([3]; ATCC15305, read-out: MIC (growth inhibition, microdilution method)): 128 µg/mL (≈ 533 µM); MIC (K. pneumoniae ATCC 13883; ATCC13883, read-out: MIC (growth inhibition, microdilution method)): 128 µg/mL (≈ 533 µM); MIC (S. aureus ATCC 29213; ATCC29213, read-out: MIC (growth inhibition, microdilution method)): 128 µg/mL (≈ 533 µM); MIC [4]: 128 µg/mL (≈ 533 µM); MIC (E. cloacae ATCC 23355; ATCC23355, read-out: MIC (growth inhibition, microdilution method)): 128 µg/mL (≈ 533 µM); MIC (MRSA ATCC 33591): 128 µg/mL (≈ 533 µM) |
| O=C(O)c1cc(-c2nnn[nH]2)c(-c2ccc(F)cc2)s1 [DNM-121, 5-(4-Fluoro-phenyl)-4-(1H-tetrazol-5-yl)-thiophene-2-carboxylic acid] | 64 (≈ 220 µM) | 64 (≈ 220 µM) | 64 (≈ 220 µM) | 64 (≈ 220 µM) | 8 (≈ 27.6 µM) | 64 (≈ 220 µM) | 64 (≈ 220 µM) | 64 (≈ 220 µM) | 64 (≈ 220 µM) | 64 (≈ 220 µM) | 64 (≈ 220 µM) | 64 (≈ 220 µM) | 64 (≈ 220 µM) | 64 (≈ 220 µM) | 64 (≈ 220 µM) | 64 (≈ 220 µM) | 64 (≈ 220 µM) | 64 (≈ 220 µM) | 8 (≈ 27.6 µM) | 8 (≈ 27.6 µM) | MIC (growth inhibition, microdilution method) (S. aureus ATCC 29213; S. aureus ATCC 29213): 32 µg/mL (≈ 110 µM); MIC ([4]; S. liquefaciens ATCC 27592): 64 µg/mL (≈ 220 µM); MIC (E. cloacae ATCC 23355; [17]): 64 µg/mL (≈ 220 µM); MIC (MRSA ATCC 33591; MRSA ATCC 33591): 64 µg/mL (≈ 220 µM) |
| CCOC(=O)c1cc(-c2nnn[nH]2)c(-c2ccc(F)cc2)s1 [DNM-124, 5-(4-Fluoro-phenyl)-4-(1H-tetrazol-5-yl)-thiophene-2-carboxylic acid ethyl ester] | > 64 | > 64 | > 64 | > 64 | > 64 | > 64 | 64 (≈ 201 µM) | > 64 | 64 (≈ 201 µM) | > 64 | > 64 | > 64 | > 64 | > 64 | > 64 | > 64 | 64 (≈ 201 µM) | 64 (≈ 201 µM) | > 64 | > 64 | MIC ([4]; S. liquefaciens ATCC 27592): > 64 µg/mL; MIC (E. cloacae ATCC 23355; [17]): > 64 µg/mL; MIC (MRSA ATCC 33591; MRSA ATCC 33591): > 64 µg/mL |
